# Laboratory results: US12478628B2, “Germ cell nuclear factor ligands and methods of use thereof” (Saint Louis University, priority 2020, dated 2025)
# Tests used:
# GCNF LBD = target: T1, GCNF LBD (Homo sapiens, UniProt Q15406); assay: Solution 1H NMR methyl peak perturbation of GCNF LBD; format: binding; conditions: 1.05:1 molar equivalence of ligand; seven shielded resonances monitored
# T1 construct: Human GCNF (NR6A1) LBD (residues 248-480); made in house; host or cells: E. coli BL(21) DE3
# T1 sequence (Q15406 248-480): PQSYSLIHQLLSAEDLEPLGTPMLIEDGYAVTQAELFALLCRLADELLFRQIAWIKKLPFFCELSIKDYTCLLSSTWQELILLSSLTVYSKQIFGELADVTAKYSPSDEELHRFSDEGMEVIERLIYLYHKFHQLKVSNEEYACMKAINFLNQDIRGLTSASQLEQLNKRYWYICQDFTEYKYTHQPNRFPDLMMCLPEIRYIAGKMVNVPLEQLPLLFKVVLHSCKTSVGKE
# Procedure: Solution NMR spectroscopy. One hundred micromolar (100 μM) of GCNF LBD with 10% D2O were mixed with either 0.5% DMSO-d6 or 1.05:1 molar equivalence of ligand and transferred to a Shigemi tube. ^1H NMR data were acquired at 298 K on a 700 MHz Bruker Avance II HDTM NMR instrument equipped with a QCI cryoprobe. For each spectrum, 1024 transients were collected into 32,000 data points, with a spectral width of 16.7 kHz. Data were analyzed using Topspin 3.5 pl 7.
# [1] = target: T2, GCNF LBD with NCoR ID1 corepressor peptide (Homo sapiens, UniProt Q15406); assay: FP ligand titration assay, NCoR ID1 peptide recruitment; format: biochemical; conditions: 20 μM GCNF LBD
# T2 construct: Human GCNF (NR6A1) LBD (residues 248-480); made in house; host or cells: E. coli BL(21) DE3
# T2 sequence (Q15406 248-480): T1 sequence (Q15406 248-480)
# Procedure: FP Assay. Fluorescence polarization (FP) assays were performed in triplicate on a 384-well Corning 3820 black opaque plate using a Biotek Synergy Neo2 HTS multimode microplate reader at excitation and emission wavelengths of 485 nm and 538 nm, respectively. Data were analyzed and plotted using GraphPad Prism as mean±SEM.
# For the FP ligand titration assay, the aforementioned N-terminus fluorescein-tagged corepressor peptides were diluted to 500 nM from a 100 μM DMSO stock in the presence of 20 μM GCNF LBD and ligand concentration points 30, 20, 13, 9, 6, 4, 2.6, 1.7 and 0 μM in assay buffer containing 50 mM HEPES (pH 7.5), 50 mM KCl, 5 mM TCEP, 0.5 mM EDTA and 0.005% Tween20. The relative polarization was plotted against log of ligand concentration (μM) and the half maximal effective concentration (EC50) values were derived via sigmoidal fit.
# LRH-1 (NR5A2) LBD = target: T3, LRH-1 (NR5A2) LBD (Homo sapiens, UniProt O00482); assay: DSF specificity assay, LRH-1; format: binding
# T3 construct: human LRH-1 (NR5A2) LBD (residues 291-541); hexahistidine tag with 3C protease site; made in house; host or cells: E. coli BL(21) DE3
# T3 sequence (O00482 291-541): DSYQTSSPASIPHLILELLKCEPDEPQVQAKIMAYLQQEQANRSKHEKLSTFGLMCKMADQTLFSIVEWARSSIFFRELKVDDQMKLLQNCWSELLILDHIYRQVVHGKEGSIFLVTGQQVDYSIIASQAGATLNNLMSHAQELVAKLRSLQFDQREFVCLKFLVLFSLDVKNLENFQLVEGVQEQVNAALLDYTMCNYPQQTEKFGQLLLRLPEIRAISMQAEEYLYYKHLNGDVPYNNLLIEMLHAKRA
# Procedure: Protein Expression and Purification. Human GCNF (NR6A1) LBD (residues 248-480) and mutants F284A/F361A, human LRH-1 (NR5A2) LBD (residues 291-541), human RXRα LBD (residues 223-462), human COUP-TF I LBD (residues 184-410) and human SF-1 LBD (residues 219-461) were subcloned in pET45b(+) plasmid (Novagen) were expressed in E. coli BL(21) DE3 cells in terrific broth with 0.1 mg/mL ampicillin as 3C protease-cleavable hexahistidine-tagged fusion proteins. The bacterial culture was grown at 37° C. to an optical density of 0.8 to 1.0 at 600 nm. Protein expression was induced by adding 1 mM IPTG and was allowed to proceed for 14 h at 22° C. […]
# DSF Assay. […] A total of 450 compounds (Life Chemicals) previously selected from a nuclear-receptor-biased library targeting REV-ERB were analyzed. Thermal stability was assessed on a Quantstudio 6 instrument (Biosystems) by ramping the temperature from 25° C. to 95° C. at 0.05° C./s and protein melt shifts were subsequently quantified by Boltzmann-derived melting temperature (Tm) using the Protein Thermal Shift (ThermoFisher) software. […]
# [2] = tested on: i3 neurons differentiated from iPSCs; assay: qPCR of pluripotency and neuronal markers after iPSC differentiation; format: cell-based; conditions: qPCR upon ligand treatment
# Procedure: qPCR using iPSC samples and differentiated neurons samples to make sure the primers worked. These primers include: • Housekeeping genes for normalization: CYCLO, 36B4, GAPDH • Stem cell markers: OCT4, SOX2, NANOG, REX1 • Neuronal markers: MAP2, MAPT, TUBB3, NCAM1
# iPSC Differentiation to Neurons. For growing neurons from iPSC cells, the method described by Femandopulle were employed (Femandopulle et al., 2018). Briefly, cells were treated with doxycycline to turn on expression of Neurogenin-2 (NGN2), which irreversibly sets these cells on the path of neuronal differentiation. The cells were treated with doxycycline for 3 days (changing media every day), and then re-plate the cells onto new plates coated with PLO. For each time point, 21 samples were prepared (DMSO and ligands 34 and 80 at different concentrations, in triplicate).
# An overview of the experiment timeline is shown as well: • Day 0: Plate iPSC on matrigel-coated 12-well plates • Day 2: Treat cells −/+ ligands in iPSC media • Day 3: Refeed cells induction media +Doxycycline −/+ ligands to start neuronal differentiation (Day 0 of differentiation) • Day 4: Refeed cells induction media +Doxycycline −/+ ligands (Day 1 of differentiation) • Day 5: Refeed cells induction media +Doxycycline −/+ ligands (Day 2 of differentiation) • Day 6: Take pictures; Refeed cells neuronal media −/+ ligands (Day 3 of differentiation) • Day 7: Collect cells for RNA/qPCR (Day 4 of differentiation)
shielded methyl 1H NMR resonances of GCNF LBD perturbed (GCNF LBD),effect on recruitment of NCoR ID1 to GCNF [1],change of Tm of LRH-1 LBD (LRH-1 (NR5A2) LBD),Structure (SMILES),expression of pluripotency marker Sox2 [2],expression of neuronal marker MAPT [2]
5 of 7,did not substantially alter,did not significantly change,"Cc1ccc(-n2ncc3c(N4CCOCC4)nc(NCc4ccco4)nc32)cc1 [Ligand 34, N-[(furan-2-yl)methyl]-1-(4-methylphenyl)-4-(morpholin-4-yl)-1H-pyrazolo[3,4-d]pyrimidin-6-amine]",substantially decreased,–
5 out of 7,did not substantially alter,did not significantly change,"O=C(Cn1cc(S(=O)(=O)c2ccccc2)c2ccccc21)N1CCc2ccccc21 [Ligand 80, 2-[3-(benzenesulfonyl)-1H-indol-1-yl]-1-(2,3-dihydro-1H-indol-1-yl)ethan-1-one]",substantially decreased,substantially increased
